Laboratory results taken from patent US7375180B2, “Methods and compositions related to IRM compounds and Toll-like receptor 8” (3M Innovative Properties Company, priority 2003, dated 2008).

Biological target: T1, TLR8 (Homo sapiens, UniProt Q9NR97)
T1 sequence (Q9NR97 27-1041): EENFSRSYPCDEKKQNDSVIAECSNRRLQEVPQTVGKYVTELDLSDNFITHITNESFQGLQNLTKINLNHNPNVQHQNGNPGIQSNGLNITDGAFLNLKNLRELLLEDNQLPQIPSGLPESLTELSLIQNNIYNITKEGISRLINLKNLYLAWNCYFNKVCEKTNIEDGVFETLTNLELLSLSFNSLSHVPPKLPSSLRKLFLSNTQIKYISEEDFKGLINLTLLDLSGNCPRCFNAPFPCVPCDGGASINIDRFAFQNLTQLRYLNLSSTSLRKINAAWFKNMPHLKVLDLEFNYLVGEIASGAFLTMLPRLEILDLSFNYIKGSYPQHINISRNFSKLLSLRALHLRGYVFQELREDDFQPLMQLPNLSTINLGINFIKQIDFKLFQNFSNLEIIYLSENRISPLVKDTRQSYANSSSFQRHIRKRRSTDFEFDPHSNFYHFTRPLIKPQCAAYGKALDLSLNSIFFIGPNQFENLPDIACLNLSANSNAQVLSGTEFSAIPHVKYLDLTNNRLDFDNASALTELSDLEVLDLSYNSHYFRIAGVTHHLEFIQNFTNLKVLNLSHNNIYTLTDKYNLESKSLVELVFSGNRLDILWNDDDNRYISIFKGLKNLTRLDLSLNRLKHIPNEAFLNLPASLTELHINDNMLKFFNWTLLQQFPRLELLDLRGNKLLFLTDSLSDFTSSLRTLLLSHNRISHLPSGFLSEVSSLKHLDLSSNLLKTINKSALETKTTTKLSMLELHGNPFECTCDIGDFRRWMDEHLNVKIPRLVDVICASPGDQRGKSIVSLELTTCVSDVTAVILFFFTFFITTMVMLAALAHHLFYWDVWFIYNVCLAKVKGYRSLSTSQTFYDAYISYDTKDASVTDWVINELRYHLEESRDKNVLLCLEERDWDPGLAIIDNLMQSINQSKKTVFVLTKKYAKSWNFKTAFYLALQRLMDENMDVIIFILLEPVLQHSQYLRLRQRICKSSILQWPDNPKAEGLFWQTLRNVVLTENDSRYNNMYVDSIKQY
Experiment: Dose dependent TLR8-mediated NF-κB-luciferase response in HEK293 cells transfected with TLR8 (Example 5)
Assay type: cell-based
Parameters: expressed in transfected cells; host or cells: HEK293 (ATCC CRL-1573), pIRES vector, G-418 selected, co-transfected with NFkB-luc reporter
Protocol: Twenty-four hours before transfection, HEK293 cells were adhered to a 10 cm dish (Corning 430167, Corning Inc., Corning, N.Y.) at 37° C., 8% CO2. The cells were co-transfected with (1) pIRES (BD Biosciences Clontech, Palo Alto, Calif.) either (a) unmodified (HEK293-vector) or (b) containing human TLR8 (HEK293-TLR8), and (2) NFkB-luc reporter (Stratagene, La Jolla, Calif.) in a 10:1 ratio with Fugene 6 transfection reagent (Roche Diagnostics Corp., Indianapolis, Ind.) following the manufacturer's instructions. The plates were incubated for 24 hours following transfection and then selected in G-418 (400 μg/mL) for two weeks. The G-418-resistant cells containing either the TLR8 or empty vector were expanded in HEK293 media supplemented with G-418 for stimulation experiments.
The transfected cells were plated in white opaque 96 well plates (Costar 3917, Corning Inc., Corning, N.Y.) at a concentration of 5×10^4 cells per well in 100 μL of HEK293 media and incubated at 37° C., 8% CO2 for 4 hours. The cells were stimulated with 1 μL of IRM compounds at 1 mM in DMSO (final IRM concentration of 10 μM) or 1 μL DMSO as a control. The plates were then incubated an additional 16 hours at 37° C., 5% CO2. Luminescence was measured on an LMAX luminometer (Molecular Devices Corp., Sunnyvale, Calif.).
HEK293 cells were transfected as described in Example 1. HEK293 cultures were incubated with IRM compound or a negative control compound (1,5-dihydro-1-(2-methylpropyl)-4H-imidazo[4,5-c]quinolin-4-one, U.S. Pat. No. 4,698,348, Example 71) at concentrations of 0.1 μM, 0.3 μM, 1.0 μM, 3.0 μM, 10 μM, or 30 μM, or a vehicle control. Cultures were otherwise incubated as described in Example 1. Luciferase signals were read in RLU (Relative Luciferase Units) as described in Example 1.

Row | Fold increase over vehicle (0.1 μM) | Fold increase over vehicle (0.3 μM) | Fold increase over vehicle (1.0 μM) | Fold increase over vehicle (3.0 μM) | Fold increase over vehicle (10 μM) | Fold increase over vehicle (30 μM) | Compound
1 | 1.0 fold | 0.9 fold | 1.3 fold | 3.8 fold | 13.2 fold | 26.0 fold | CCCCc1nc2c(N)nc3ccccc3c2n1CCS(=O)(=O)CC [IRM42, 2-butyl-1-[2-(ethylsulfonyl)ethyl]-1H-imidazo[4,5-c]quinolin-4-amine]
2 | 1.2 fold | 1.8 fold | 5.9 fold | 10.0 fold | 24.4 fold | 27.9 fold | CCOCc1nc2c(N)nc3cc(-c4ccncc4)ccc3c2n1CC(C)(C)O [IRM56, 1-[4-amino-2-ethoxymethyl-7-(pyridin-4-yl)-1H-imidazo[4,5-c]quinolin-1-yl]-2-methylpropan-2-ol]
3 | 1.1 fold | 1.4 fold | 2.0 fold | 3.8 fold | 7.0 fold | 15.5 fold | COCCc1nc2c(N)nc3cc(-c4cncc(CO)c4)ccc3c2n1CC(C)(C)O [IRM49, 1-[4-amino-7-(5-hydroxymethylpyridin-3-yl)-2-(2-methoxyethyl)-1H-imidazo[4,5-c]quinolin-1-yl]-2-methylpropan-2-ol]
4 | 0.7 fold | 0.8 fold | 0.9 fold | 3.2 fold | 6.9 fold | 7.8 fold | CCOCc1nc2c(N)nc3cc(-c4cccc(C(=O)N5CCCC5)c4)ccc3c2n1CC(C)(C)O [IRM58, {3-[4-amino-2-ethoxymethyl-1-(2-hydroxy-2-methylpropyl)-1H-imidazo[4,5-c]quinolin-7-yl]phenyl}pyrrolidin-1-ylmethanone]
5 | 0.9 fold | 1.0 fold | 1.4 fold | 2.0 fold | 3.6 fold | 7.7 fold | CCOCc1nc2c(N)nc3cc(-c4ccc(CO)cc4)ccc3c2n1CC1COC(C)(C)O1 (stereo not drawn) [IRM53, 1-[(2,2-dimethyl-1,3-dioxolan-4-yl)methyl]-2-(ethoxymethyl)-7-(4-hydroxymethylphenyl)-1H-imidazo[4,5-c]quinolin-4-amine]
6 | 1.1 fold | 1.0 fold | 1.1 fold | 2.7 fold | 6.2 fold | 9.1 fold | CCOCc1nc2c(N)nc3c(c2n1NC(C)C)CCCC3 [IRM60, 2-ethoxymethyl-N^1-isopropyl-6,7,8,9-tetrahydro-1H-imidazo[4,5-c]quinoline-1,4-diamine]

Second part, the molecule before the results:

Row | Compound | Fold increase over vehicle (0.1 μM) | Fold increase over vehicle (0.3 μM) | Fold increase over vehicle (1.0 μM) | Fold increase over vehicle (3.0 μM) | Fold increase over vehicle (10 μM) | Fold increase over vehicle (30 μM)
7 | COCCc1nc2c(N)nc3ccccc3c2n1CCCCNC(=O)c1cnc2ccccc2n1 [IRM38, N-{4-[4-amino-2-(2-methoxyethyl)-1H-imidazo[4,5-c]quinolin-1-yl]butyl}quinoxaline-2-carboxamide] | 0.8 fold | 0.8 fold | 1.3 fold | 3.8 fold | 6.9 fold | 7.8 fold
8 | CCCCc1nc2c(N)nc3ccccc3c2n1CC(C)(C)CNC(=O)N1CCOCC1 [IRM46, N-[3-(4-amino-2-butyl-1H-imidazo[4,5-c]quinolin-1-yl)-2,2-dimethylpropyl]morpholine-4-carboxamide] | 0.9 fold | 1.1 fold | 1.4 fold | 1.7 fold | 3.9 fold | 7.3 fold
9 | CCOCc1nc2c(N)nc3cc(-c4ccc(C(=O)N(C)OC)cc4)ccc3c2n1CC(C)(C)O [IRM61, 4-[4-amino-2-ethoxymethyl-1-(2-hydroxy-2-methylpropyl)-1H-imidazo[4,5-c]quinolin-7-yl]-N-methoxy-N-methylbenzamide] | 1.0 fold | 1.1 fold | 2.9 fold | 6.7 fold | 10.3 fold | 9.4 fold
10 | CCOCc1nc2c(N)nc3ccccc3c2n1CC(C)(C)NC(=O)NC1CCCC1 [IRM54, 1-[2-(4-amino-2-ethoxymethyl-1H-imidazo[4,5-c]quinolin-1-yl)-1,1-dimethylethyl]-3-cyclopentylurea] | 0.9 fold | 0.9 fold | 1.2 fold | 2.6 fold | 5.9 fold | 9.2 fold
11 | COCCc1nc2c(N)nc3cc(-c4cccc(NS(C)(=O)=O)c4)ccc3c2n1CC(C)(C)O [IRM50, N-{3-[4-amino-1-(2-hydroxy-2-methylpropyl)-2-(methoxyethyl)-1H-imidazo[4,5-c]quinolin-7-yl]phenyl}methanesulfonamide] | 1.8 fold | 2.1 fold | 2.2 fold | 4.1 fold | 11.7 fold | 21.1 fold
12 | COCCc1nc2c(N)nc3ccccc3c2n1CCCCNC(=O)c1cnc2ccccc2c1 [IRM37, N-{4-[4-amino-2-(2-methoxyethyl)-1H-imidazo[4,5-c]quinolin-1-yl]butyl}quinoline-3-carboxamide] | 0.7 fold | 0.9 fold | 1.0 fold | 3.2 fold | 5.2 fold | 11.8 fold
13 | CCCCc1nc2c(N)nc3ccccc3c2n1CCCS(C)(=O)=O [IRM40, 2-butyl-1-[3-(methylsulfonyl)propyl]-1H-imidazo[4,5-c]quinolin-4-amine] | 1.0 fold | 0.9 fold | 0.9 fold | 1.3 fold | 3.1 fold | 16.4 fold
14 | CCOCc1nc2c(N)nc3cc(-c4cncc(CO)c4)ccc3c2n1CC(C)(C)O [IRM52, 1-{4-amino-2-(ethoxymethyl)-7-[5-(hydroxymethyl)pyridin-3-yl]-1H-imidazo[4,5-c]quinolin-1-yl}-2-methylpropan-2-ol] | 1.2 fold | 2.1 fold | 4.1 fold | 5.8 fold | 7.8 fold | 9.3 fold
